Results reported in paper PMC12181400, “Leveraging viral genome sequences and machine learning models for identification of potentially selective antiviral agents” (Communications Chemistry, 2025).
Where a name gives a salt, the structure may show the parent alone. Read-outs that look alike come from different tables or passages of the source.

Legend:
[1] = tested on: hepatitis B surface antigen (HBsAg) secretion; set-up: method as in PMID 17723297; conditions: Hep G2.2.15 cell line; read-out: IC50, inhibition of HBsAg secretion; cited from earlier work
[2] = tested on: wild-type (WT) and drug-resistant HIV-1 isolates; set-up: method as in pmid 18043758; conditions: multiple wild-type and drug-resistant HIV-1 isolates; ref pmid 18043758; cited from earlier work
[3] = tested on: SARS-CoV-2 Spike protein containing PPs, entry into HEK293-ACE2 cells; assay: microbe, parasite or virus in culture; type: cell-based; conditions: PP entry, HEK293-ACE2, 48 h, mean ± SD of two independent experiments; for IC50: Severe acute respiratory syndrome coronavirus 2, 11 concentrations
MT-4 cells = tested on: MT-4 cells; set-up: method as in pmid 19265512; conditions: MT-4 cells in the presence of 20% NHS; ref pmid 19265512; read-out: antiviral EC90; cited from earlier work
IN = tested on: IN; set-up: method as in pmid 19265512; conditions: in vitro strand transfer assay; ref pmid 19265512; read-out: IC50, inhibition of IN; cited from earlier work
[4] = tested on: cell viability (tox21-ar-mda-kb2-luc-agonist-p3); conditions: cited from earlier work
[5] = tested on: cell viability (tox21-are-bla-p1); conditions: cited from earlier work
[6] = tested on: cell viability (tox21-ap1-agonist-p1); conditions: cited from earlier work
[7] = tested on: cell viability (tox21-car-agonist-p1); conditions: cited from earlier work
[8] = tested on: cell viability (tox21-ar-mda-kb2-luc-antagonist-p2); conditions: cited from earlier work
[9] = tested on: cell viability (tox21-car-antagonist-p1); conditions: cited from earlier work
[10] = curve rank −9 to 9, 0 = inactive, ref NCATS Tox21 public data browser

COc1cc2c3c(c1O)C1(C=CC(=O)C=C1)CC3N(C)CC2 (centres unmarked) [glaziovine]
IC50 [1]: 8000 nM

C=C(C)[C@@H]1CC[C@]2(C(=O)O)CC[C@]3(C)[C@H](CC[C@@H]4[C@@]5(C)CC[C@H](OC(=O)CC(C)(C)C(=O)O)C(C)(C)[C@@H]5CC[C@]43C)[C@@H]12 [bevirimat, 3-O-(3',3'-dimethylsuccinyl) betulinic acid]
in vitro antiviral activity [2]: 10 nM

COc1ccc(-c2csc3ncnc(N(C)CCO)c23)cc1 [NCGC00608516]
efficacy [3]: −93.10 ± 32.33%
IC50 [3]: 11700 ± 2820 nM

Cn1c(=O)c(C(=O)NCCO)c(O)c2ncc(Cc3ccc(F)cc3)cc21 [GSK-364735]
EC90 (MT-4 cells): 40 nM
IC50 (IN): 8 nM

COc1ccc(-c2nc3ccccc3n2Cc2ccccc2)cc1COc1ccc(NC(C)=O)cc1 [NCGC00166392]
efficacy [3]: −83.25 ± 8.42%
IC50 [3]: 1370 nM

COc1ccc(C(CNC(=O)c2ccc3ccccc3n2)N2CCCC2)cc1 (centres unmarked) [NCGC00622469]
efficacy [3]: −64.06 ± 9.68%
IC50 [3]: 5910 ± 7000 nM

N=c1ccn(C2OC(COP(=O)(O)O)C(O)C2O)c(=O)[nH]1 (centres unmarked) [NCGC00014029]
efficacy [3]: −76.63 ± 14.92%
IC50 [3]: 1310 ± 320 nM

O=C(Nc1nc(-c2ccc(F)cc2)cs1)c1c(F)cccc1F [NCGC00633127]
efficacy [3]: −67.42 ± 5.30%
IC50 [3]: 4590 ± 370 nM

NC(=O)c1ccc([N+](=O)[O-])cc1Cl [2-Chloro-4-nitrobenzamide]
tox21-ar-mda-kb2-luc-agonist-p3-viability (curve rank) [4, 10]: 0
tox21-are-bla-p1-viability (curve rank) [5, 10]: 0
tox21-ap1-agonist-p1-viability (curve rank) [6, 10]: 0
tox21-car-agonist-p1-viability (curve rank) [7, 10]: 0
tox21-ar-mda-kb2-luc-antagonist-p2-viability (curve rank) [8, 10]: 0
tox21-car-antagonist-p1-viability (curve rank) [9, 10]: 0

CCOC(=O)[N-]c1cn(N2CCOCC2)n[o+]1 [Molsidomine]
tox21-ar-mda-kb2-luc-agonist-p3-viability (curve rank) [4]: 0
tox21-are-bla-p1-viability (curve rank) [5]: 0
tox21-ap1-agonist-p1-viability (curve rank) [6]: 0
tox21-car-agonist-p1-viability (curve rank) [7]: 0
tox21-ar-mda-kb2-luc-antagonist-p2-viability (curve rank) [8]: 0
tox21-car-antagonist-p1-viability (curve rank) [9]: 0

CC(C)(Sc1cc(C(C)(C)C)c(O)c(C(C)(C)C)c1)Sc1cc(C(C)(C)C)c(O)c(C(C)(C)C)c1 [Probucol]
tox21-ar-mda-kb2-luc-agonist-p3-viability (curve rank) [4]: 0
tox21-are-bla-p1-viability (curve rank) [5]: 0
tox21-ap1-agonist-p1-viability (curve rank) [6]: 0
tox21-car-agonist-p1-viability (curve rank) [7]: 0
tox21-ar-mda-kb2-luc-antagonist-p2-viability (curve rank) [8]: 0
tox21-car-antagonist-p1-viability (curve rank) [9]: 0

CC(=O)CCCCn1c(=O)c2c(ncn2C)n(C)c1=O [Pentoxifylline]
tox21-ar-mda-kb2-luc-agonist-p3-viability (curve rank) [4]: 0
tox21-are-bla-p1-viability (curve rank) [5]: 0
tox21-ap1-agonist-p1-viability (curve rank) [6]: 0
tox21-car-agonist-p1-viability (curve rank) [7]: 0
tox21-ar-mda-kb2-luc-antagonist-p2-viability (curve rank) [8]: 0
tox21-car-antagonist-p1-viability (curve rank) [9]: 0

CC(C)NNC(=O)c1ccncc1 [Iproniazid sulfate]
tox21-ar-mda-kb2-luc-agonist-p3-viability (curve rank) [4]: 0
tox21-are-bla-p1-viability (curve rank) [5]: 0
tox21-ap1-agonist-p1-viability (curve rank) [6]: 0
tox21-car-agonist-p1-viability (curve rank) [7]: 0
tox21-ar-mda-kb2-luc-antagonist-p2-viability (curve rank) [8]: 0
tox21-car-antagonist-p1-viability (curve rank) [9]: 0

COc1cc(-c2ccc(=O)[nH]n2)ccc1OC(F)F [Zardaverine]
tox21-ar-mda-kb2-luc-agonist-p3-viability (curve rank) [4, 10]: 0
tox21-are-bla-p1-viability (curve rank) [5, 10]: 0
tox21-ap1-agonist-p1-viability (curve rank) [6, 10]: 0
tox21-car-agonist-p1-viability (curve rank) [7, 10]: 0
tox21-ar-mda-kb2-luc-antagonist-p2-viability (curve rank) [8, 10]: 0
tox21-car-antagonist-p1-viability (curve rank) [9, 10]: 0

OC(c1ccccc1)(c1ccccc1)C1CCNCC1 [Azacyclonol]
tox21-ar-mda-kb2-luc-agonist-p3-viability (curve rank) [4, 10]: 0
tox21-are-bla-p1-viability (curve rank) [5, 10]: 0
tox21-ap1-agonist-p1-viability (curve rank) [6, 10]: 0
tox21-car-agonist-p1-viability (curve rank) [7, 10]: 0
tox21-ar-mda-kb2-luc-antagonist-p2-viability (curve rank) [8, 10]: 0
tox21-car-antagonist-p1-viability (curve rank) [9, 10]: 0
